Laboratory results published in patent publication US20170196888A1, “COMPOSITIONS AND METHODS FOR TREATING CANCER” (Yeda Research and Development Co. Ltd., priority 2014, published 2017).

Columns and labels:
MCF10A cells [1] = assay: Transwell migration assay of EGF-stimulated MCF10A cells; format: cell-based, human; conditions: for inhibition of EGF-induced cell migration: MCF10A in transwell, EGF 10 ng/ml, DEX 100 nM, E2 30 nM, PRG 30 nM, MPA 100 nM, 20 hours
Experimental: MCF10A cells were grown as described^16 and stimulated with EGF (10 ng/ml) or DEX (100 nM). siRNA transfections employed Oligofectamine (Invitrogen) and ON-Target SMART (Dharmacon, Lafayette, Colo.) oligonucleotides. Lapatinib (di-p-Toluenesulfonate Salt) was purchased from LC Laboratories. Anti GR antibody for immunostaining (sc-1004, SANTA CRUZ BIOTECHNOLOGY, INC.)
Cells (5×10^4 cell/insert) were plated in the upper compartment of a 24-well transwell tray (Corning, Acton, MA), and their migration was assayed^16. Cell invasion assays were performed using BioCoat Matrigel Invasion Chambers (BD Bioscience, Franklin Lakes, N.J.). For tracking, cells were seeded (3×10^3 cells/cm^2) on collagen-coated micro-slide (from Ibidi). For collective migration, 8×10^4 cells were seeded in plastic insets (Ibidi), and after overnight incubation, the plastic barriers were removed and time-lapse images were recorded.

MCF10A cells [2] = assay: Annexin V / propidium iodide flow cytometry; format: cell-based, human; conditions: MCF10A pre-treated 24 hours with EGF, DEX or the combination
Experimental: FIG. 1J—MCF10A cells pre-treated for 24 hours with of EGF, DEX or the combination. Thereafter, cells were stained for the apoptosis marker annexin V and the necrosis marker propidium iodide (PI), and later assayed using flow cytometry.

EGF-induced genes = assay: Affymetrix Exon Array time course of EGF- and DEX-regulated transcripts; format: cell-based, human; conditions: at 20 minutes
Experimental: (§1) RNA was isolated using the PerfectPure kit from 5 Prime (Hamburg, Germany). Affymetrix GeneChip Human Exon 1.0 ST arrays were used and data were deposited in Gene Expression Omnibus (GSE53405). PCR of pre-mRNA or mRNA used forward primers positioned in the second intron or exon, respectively (Table 3 below).
(§2) All reactions were performed using Power SYBR Green PCR Master Mix (Applied Biosystems, Foster City, CA). For high throughput PCR the Fluidigm® BioMark system was employed. The Affymetrix Expression Console was used for analyses of DNA-arrays, as described^51.
Conceivably, the inhibitory effect of GR involves alterations of EGF-induced transcription. Specifically, GR might affect transcript synthesis or modulate EGF-induced RNA splicing in MCF10A cells. To address such models, cells were stimulated with EGF, DEX or the combination, mRNAs were isolated along a time course from 20 minutes to four hours, and the RNA was hybridized to Affymetrix Exon Arrays which is able to resolve small changes in splicing^19. In addition, confirmatory PCR analyses are provided.

[3] = system: MCF10A derivatives stably expressing ERRFI1-specific shRNAs; assay: Migration assay of ERRFI1-depleted MCF10A derivatives; format: cell-based, human; conditions: ERRFI1-depleted cells
Experimental: FIG. 3A—Serum-starved MCF10A cells were treated with EGF or DEX. qPCR analysis was performed using RNA and primers corresponding to pre-mRNAs (dashed lines) or the mature forms (solid lines). FIG. 3B—A scheme depicting negative feedback regulators of EGFR signalling. FIGS. 3C-D—Cells were stimulated as in A and extracts were immunoblotted for ERRFI1, GR and ERK2. Normalized ERRFI1 signals are shown. FIGS. 3E-F—Active ERK signals (pERK) were determined, normalized and presented. FIG. 3G—MCF10A derivatives stably expressing ERRFI1-specific shRNAs were tested for migration following the indicated treatments. The results were analysed as in FIG. 1D. *p<0.05; ***p<0.0001 (one-way Anova). FIG. 3H—Serum-starved MCF10A cells were pre-incubated for 20 minutes with actinomycin D (1 μg/m1), and thereafter stimulated for the indicated time intervals with EGF or DEX. […] FIG. 3I—The pERK signals from FIG. 3H and additional experiments were quantified, normalized to total ERK2 levels and presented.
Cells (5×10^4 cell/insert) were plated in the upper compartment of a 24-well transwell tray (Corning, Acton, MA), and their migration was assayed^16. […] For collective migration, 8×10^4 cells were seeded in plastic insets (Ibidi), and after overnight incubation, the plastic barriers were removed and time-lapse images were recorded.

[4] = system: N87 human gastric cancer cells; assay: N87 tumor xenograft study with day or night dosing; format: in vivo, mice
Experimental: All animal experiments were approved by the institutional committee. C57BL/6 (CD45.2, Harlan) and knockout animals were maintained under defined flora conditions and at 12 hour light-dark cycles. For daily clock studies, female mice (10-12 week old) were divided into 2 groups; one was maintained in the day-night room, and the second group was located in a special room (with inverted day-light cycles). Mice were let acclimate for at least one week prior to protein and RNA extraction. For tumor xenograft studies, 20 athymic nude (nu/nu) mice were used and maintained in a Specific Pathogen Free environment. Animals (n=10 per group) were inoculated subcutaneously in the left leg (using a sterile 22-gauge needle) with 5×10^6 N87 cells. Mice were randomized into two groups, daily treated with Lapatinib by oral gavage (40 mg/kg) in the night (2 hours after the light off) and in the day (approximately 70 minutes before light on). Treatments were started 2 weeks after cell injection. Tumor width (W) and length (L) were measured once a week with a calliper and tumor volume (V) was calculated according to the formula: V=0.5×W^2×L.

glucocorticoid receptor = biological target: T1, glucocorticoid receptor (Homo sapiens, UniProt P04150); conditions: cited from earlier work
T1 sequence (P04150 1-777): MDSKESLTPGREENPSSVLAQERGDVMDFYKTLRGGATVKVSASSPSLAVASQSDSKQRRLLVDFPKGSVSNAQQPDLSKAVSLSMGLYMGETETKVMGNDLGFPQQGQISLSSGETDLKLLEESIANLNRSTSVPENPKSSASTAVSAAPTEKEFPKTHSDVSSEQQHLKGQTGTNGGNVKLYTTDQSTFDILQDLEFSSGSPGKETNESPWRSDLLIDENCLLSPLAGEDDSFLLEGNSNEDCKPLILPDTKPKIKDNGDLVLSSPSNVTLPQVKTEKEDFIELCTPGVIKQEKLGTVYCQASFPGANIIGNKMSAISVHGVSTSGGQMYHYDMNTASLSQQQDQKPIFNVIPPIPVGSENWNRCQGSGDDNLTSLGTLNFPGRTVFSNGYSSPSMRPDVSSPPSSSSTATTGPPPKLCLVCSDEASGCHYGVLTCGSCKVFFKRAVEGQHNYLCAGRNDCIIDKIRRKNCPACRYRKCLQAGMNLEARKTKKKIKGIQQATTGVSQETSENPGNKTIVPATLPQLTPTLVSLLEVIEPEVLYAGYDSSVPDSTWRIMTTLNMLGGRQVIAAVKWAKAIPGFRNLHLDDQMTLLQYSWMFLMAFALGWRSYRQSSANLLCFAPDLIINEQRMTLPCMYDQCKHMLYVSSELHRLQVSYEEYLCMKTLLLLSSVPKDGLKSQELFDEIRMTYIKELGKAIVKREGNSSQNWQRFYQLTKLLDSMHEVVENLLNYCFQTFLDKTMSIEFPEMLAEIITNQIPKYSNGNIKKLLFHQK

DUSP1 and ERRFI1 = assay: qPCR of negative feedback regulators (pre-mRNA and mRNA); format: cell-based, human; conditions: serum-starved MCF10A, EGF 10 ng/ml, DEX 100 nM
Experimental: as §1, §2
Analyses of defects in vulva formation in worms and aberrations in eye development in insects, two processes controlled by EGFR, helped define several evolutionary conserved and partly redundant negative feedback loops able to robustly terminate EGFR signalling^21. Since Module A (EGF^UP/DEX^UP) includes several orthologs of the invertebrate negative feedback loops, three of them were selected for further analysis. DUSP1 is the prototype of MAPK-specific phosphatases, which dephosphorylate the shared Thr-Xxx-Tyr motif of MAPKs. ERRFI1/MIG6 (also called RALT) is a previously identified steroid-inducible adaptor, which physically binds and inhibits the kinase domain of EGFR^5. […] By using primers specific for the nascent or the mature transcripts, de novo transcription of these three negative regulators was followed (FIG. 3A). […]

C[C@@H]1C[C@H]2[C@@H]3CCC4=CC(=O)C=C[C@]4(C)[C@@]3(F)[C@@H](O)C[C@]2(C)[C@@]1(O)C(=O)CO [DEX, dexamethasone]
inhibition of EGF-induced migration (MCF10A cells [1]; control cells): 90% | cellular toxicity, markers of apoptosis (annexin V) and necrosis (propidium iodide) (MCF10A cells [2]): excluded the possibility of cellular toxicity | inhibitory effect on EGF-induced genes, share of maximal capacity (EGF-induced genes): 70% | inhibition of EGF-induced migration [3]: 30%

CS(=O)(=O)CCNCc1ccc(-c2ccc3ncnc(Nc4ccc(OCc5cccc(F)c5)c(Cl)c4)c3c2)o1 [Lapatinib]
therapeutic impact on tumor size and weight by time of administration ([4]; 40 mg/kg/day oral gavage, just before the resting phase (ZT23) versus beginning of the active phase): statistically significant enhancement | tumor angiogenesis (appearance of tumors) ([4]; administration during the resting phase): inhibited tumor angiogenesis

CC(=O)O[C@]1(C(C)=O)CC[C@H]2[C@@H]3C[C@H](C)C4=CC(=O)CC[C@]4(C)[C@H]3CC[C@@]21C [MPA, medroxyprogesterone acetate]
inhibition of EGF-induced cell migration (MCF10A cells [1]): less potent | EC50 (glucocorticoid receptor): ~10 nM

CC(=O)[C@H]1CC[C@H]2[C@@H]3CCC4=CC(=O)CC[C@]4(C)[C@H]3CC[C@]12C [PRG, progesterone]
inhibition of EGF-induced cell migration (MCF10A cells [1]): weak or no activity

EGF: epidermal growth factor, EGFR ligand used to stimulate MCF10A cells
induction of DUSP1 and ERRFI1 transcripts (DUSP1 and ERRFI1): 3-5 fold
